Results published in article PMC6571673, “Cytostatic and Cytotoxic Natural Products against Cancer Cell Models” (Molecules, 2019).
Where two headings read alike, the source gives them in different places.

What was measured:
SUM149 = test: Propidium iodide (PI) assay, 48 h; conditions: SUM149, 48 h, 3 µM
Description: The first step was to evaluate if the compounds display cytotoxicity against the adherent cells. Propidium iodide (PI) assay was performed for the drug resistant solid tumor cellular models (triple negative breast cancer models: SUM149 and MDA-MB-231) for 48 h (Figure 5) [30, 31].

MDA-MB-231 = test: Propidium iodide (PI) assay, 48 h; type: cell-based, human; conditions: MDA-MB-231, 48 h
SUP-B15 [1] = test: Cell cycle analysis (PI DNA content, flow cytometry); type: cell-based, human; conditions: SUP-B15, 24 h; silvestrol 5 µM, 8 5 µM, 9 10 µM, 10 5 µM, 12 10 µM, 13 10 µM
Description: (§1) The samples were probed with AnnexinV-FITC (Roche/Boehringer Mannheim, Indianapolis, IN, USA) according to the manufacturer’s instructions. KOPN-8 or SUB-P15 cells were plated (1.00 × 10^6 cells/plate) and incubated for 12 h and incubated at 37 °C. Then, cells were treated with compounds or controls for 24 h. Cells were stained with AnnexinV-FITC, PI and the staining profiles were determined with FACScan and Cell-Quest software. For cellular DNA content, the same cell treatment as above was performed. Then, cells were fixed in cold 75% ethanol, treated with RNase and then stained with PI solution (50 µg/mL). Cell cycle distribution was analyzed with the FACSCalibur analyzer (BD Biosciences, Franklin Lakes, NJ, USA) and Cell-Quest software. The percentage of DNA content at different phases of the cell cycle was analyzed with ModFit-software (version 5.0, Verity Software House, Topsham, ME, USA).

KOPN-8 [2] = test: as above; type: cell-based, human; conditions: KOPN-8, 24 h; silvestrol 5 µM, 8 5 µM, 9 10 µM, 10 5 µM, 12 10 µM, 13 10 µM
Description: as §1

Plasma stability assay = type: in vitro ADME; conditions: read-out: plasma stability t1/2
Description: (§2) To gain further information regarding intracellular compound localization, studies were extended to include a marker for the ER (Figure 8). The staining pattern for the individual probes are shown in Figure 8A (ER), Figure 8B (Lysosome) and Figure 8D (probe 9a). […] Moreover, when all three channels were merged, white specks were observed, indicating co-localization of probe 9a with cellular structures that are stained by both ER and lysosomal marker dyes (Figure 8F). […] These mechanisms provide a plausible explanation for the lower potency of compound 9 compared to compound 10. Finally, in vitro ADME (absorption, distribution, metabolism, and elimination) profiles were evaluated for compounds 9 and 10 to compare with the obtained cellular data (Supplementary Material, Figure S10). The aqueous solubility properties at physiological pH (7.40) of compounds 9 and 10 were good compared to controls. […] The combined findings indicate that the steric-effects of the hydroxysuccinate appendage of compound 10 renders it less prone to degradation by lysosomal activity or other competing cellular removal mechanisms.

SUP-B15 [3] = test: Annexin V/PI apoptosis flow cytometry assay; type: cell-based, human; conditions: SUP-B15, 24 h; 8 5 µM, 9 10 µM, 10 5 µM, 12 10 µM, 13 10 µM
Description: as §1

KOPN-8 [4] = test: Annexin V/PI apoptosis flow cytometry assay; type: cell-based, human; conditions: KOPN-8, 24 h; 8 5 µM, 9 10 µM, 10 5 µM, 12 10 µM, 13 10 µM
Description: as §1

[5] = test system: de novo protein synthesis in MDA-MB-231; test: EZClick in-cell-click de novo protein synthesis assay; type: cell-based, human; conditions: MDA-MB-231, 2 h exposure time
Description: Protein synthesis is essential in cell growth, proliferation, signaling, differentiation, and death. […] The assay includes a robust chemical method based on an alkyne containing o-propargyl-puromycin probe, which stops translation by forming covalent conjugates with nascent polypeptide chains. Truncated polypeptides are rapidly turned over by the proteasome and can be detected based on the subsequent click reaction with a fluorescent azide. To test whether these compounds (4–14) induced de novo protein synthesis inhibition, compounds were tested for a 2 h exposure time, under the same conditions as the known protein synthesis inhibitor cycloheximide (CHX) in MDA-MB-231 cell model following an in-cell-click de novo protein synthesis assay.
Biovision’s EZClick™ protein synthesis monitoring assay kit (EZClick™ Global Protein Synthesis Assay Kit, Catalog # K715-100, Milpitas, CA, USA) was used according to manufacturer’s protocol. The assay was conducted in 8-well chambered coverslips (ibidi GmbH µ-slide # 80826, Martinsried, Germany). Cells were plated at 2 × 10^4 per well and incubated at 37 °C for 12 h. Then, the cells were treated with compounds for 1.5 h and processed and stained according to protocol (representative images shown in Figure 4). Protein synthesis activity is shown in red, DNA staining is shown in green. Cycloheximide (CHX) was used as a positive control and DMSO as the negative control. Images shown were taken with a Marianas CSU-X spinning disk confocal imaging system (3i, Denver, CO, USA) configured with a Zeiss Axio Observer microscope (Carl Zeiss Inc., Thornwood, NY, USA) with diode lasers, at 63× magnification and resolution of 512 × 512 pixels (3i). For each field of view, an image stack consisting of 20 optical sections were taken at 63× magnification. The total intensity of red and green staining was quantified for the entire image stack. Six fields of view were analyzed per condition. Images shown represent a single optical section for each field of view. For each stack, the red intensity (protein synthesis) was adjusted to the green intensity (DNA content) in each image. The numbers from six images were used to calculate the average and standard deviation for each condition. Numbers were normalized to the negative control value arbitrarily set to one. The Slide viewer 6 software package was used for rendering and analysis of the images.

[6] = caco-2 permeability assay; type: in vitro ADME; conditions: human, read-out: efflux ratio, B2A/A2B
Description: as §2

PAMPA assay = type: in vitro ADME
Description: as §2

SMILES | reduction of cell viability (SUM149) [%] | activity in PI assay (MDA-MB-231) | cell cycle effect (SUP-B15 [1]) | cell cycle effect (KOPN-8 [2]) | half-life (Plasma stability assay; human plasma) [h] | half-life (Plasma stability assay; mouse plasma) [h] | live cells (Annexin-, PI-) (SUP-B15 [3]) | live cells (Annexin-, PI-) (KOPN-8 [4]) | concentration at which de novo protein synthesis is inhibited [5] [µM] | efflux ratio [6] | PAMPA permeability (PAMPA assay; PAMPA) | PAMPA permeability (PAMPA assay)
COC1=C[C@]23CCCN2CCc2cc4c(cc2[C@@H]3[C@@H]1O)OCO4 [Compound 9, cephalotaxine] | 50 | substantial activity | no significant cell arrest | no significant cell arrest | > 25 | > 25 | small decrease in live cells | small decrease in live cells | 10 | ~2 | favorable permeability properties | –
COC(=O)C[C@](O)(CCCC(C)(C)O)C(=O)O[C@@H]1C(OC)=C[C@]23CCCN2CCc2cc4c(cc2[C@H]13)OCO4 [Compound 10, homoharringtonine, reference compound] | – | substantial activity | almost identical to silvestrol | almost identical to silvestrol | > 12 | < 1 | – | – | – | < 1 | – | favorable permeability properties
